Measurements from PubChem BioAssay (NCI).
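Tested at 5 concentrations; 48 h exposure; 96-well plates; endpoints linearly interpolated, else capped at highest concentration. The concentration for 50% growth inhibition is given as GI50. TGI marks complete inhibition of growth.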

Legend:
Assay in all cases: DTP human tumour cell line panel, 48 h
[1] = tested on: SN12C renal
[2] = tested on: SF-539 CNS
[3] = tested on: K-562 leukemia
[4] = tested on: CAKI-1 renal
[5] = tested on: HCC-2998 colon
[6] = tested on: COLO 205 colon
[7] = tested on: PC-3 prostate
[8] = tested on: HCT-15 colon
[9] = tested on: UACC-257 melanoma
[10] = tested on: HOP-62 NSCLC
[11] = tested on: RPMI-8226 leukemia
[12] = tested on: SW-620 colon
[13] = tested on: SR leukemia
[14] = tested on: CCRF-CEM leukemia
[15] = tested on: NCI-H23 lung
[16] = tested on: HOP-92 NSCLC
[17] = tested on: NCI/ADR-RES ovarian
[18] = tested on: RXF 393 renal
[19] = tested on: A498 renal
[20] = tested on: HS 578T breast
[21] = tested on: SK-OV-3 ovarian
[22] = tested on: NCI-H460 lung
[23] = tested on: UACC-62 melanoma
[24] = tested on: HCT-116 colon
[25] = tested on: KM12 colon
[26] = tested on: U251 CNS
[27] = tested on: OVCAR-3 ovarian
[28] = tested on: OVCAR-8 ovarian
[29] = tested on: DU-145 prostate
[30] = tested on: BT-549 breast
[31] = tested on: SK-MEL-5 melanoma
[32] = tested on: OVCAR-4 ovarian
[33] = tested on: SF-268 CNS
[34] = tested on: NCI-H226 lung
[35] = tested on: MCF7 breast
[36] = tested on: ACHN renal
[37] = tested on: SK-MEL-28 melanoma
[38] = tested on: SK-MEL-2 melanoma
[39] = tested on: UO-31 renal
[40] = tested on: NCI-H522 lung
[41] = tested on: MDA-MB-435
[42] = tested on: SNB-19 CNS
[43] = tested on: MALME-3M melanoma
[44] = tested on: MDA-MB-231 breast
[45] = tested on: LOX IMVI melanoma
[46] = tested on: SNB-75 CNS
[47] = tested on: MOLT-4 leukemia
[48] = tested on: OVCAR-5 ovarian
[49] = tested on: A549 NSCLC
[50] = tested on: SF-295 CNS
[51] = tested on: TK-10 renal
[52] = tested on: EKVX NSCLC
[53] = tested on: 786-0 renal
[54] = tested on: HL-60(TB) leukemia
[55] = tested on: M14 melanoma
[56] = tested on: T-47D breast
[57] = tested on: HT29 colon
[58] = tested on: IGROV1 ovarian

For `CCc1c[nH]c2ncnc(N3CC[C@@](N)(CNC(=O)c4ccc(F)cc4F)C3)c12`, which GI50 [1] is on record?
Its GI50 is 32.1 µM.

What about the TGI [1] of the same compound?
Its TGI is greater than 100 µM.

And the GI50 [2]?
The GI50 was 20.4 µM.

And the TGI [2]?
Its TGI is greater than 100 µM.

What about the GI50 [3] of the same compound?
The GI50 was 48.3 µM.

What about the TGI [3] of the same compound?
Its TGI is greater than 100 µM.

And the GI50 [4]?
The GI50 was 18.7 µM.

And the TGI [4]?
The TGI was greater than 89.8 µM.

What about the GI50 [5] of the same compound?
Its GI50 is 50.7 µM.

And the TGI [5]?
Its TGI is greater than 100 µM.

And the GI50 [6]?
The GI50 was 29.8 µM.

And the TGI [6]?
Its TGI is greater than 100 µM.

And the GI50 [7]?
The GI50 was 35.4 µM.

And the TGI [7]?
Its TGI is greater than 100 µM.

What about the GI50 [8] of the same compound?
Its GI50 is 43.6 µM.

And the TGI [8]?
Its TGI is greater than 100 µM.

And the GI50 [9]?
Its GI50 is 34.5 µM.

What about the TGI [9] of the same compound?
The TGI was greater than 100 µM.

What about the GI50 [10] of the same compound?
Its GI50 is 30.5 µM.

What about the TGI [10] of the same compound?
Its TGI is greater than 100 µM.

What about the GI50 [11] of the same compound?
Its GI50 is 28.6 µM.

And the TGI [11]?
Its TGI is greater than 100 µM.

And the GI50 [12]?
Its GI50 is 31.3 µM.

And the TGI [12]?
The TGI was greater than 100 µM.

What about the GI50 [13] of the same compound?
Its GI50 is 16.4 µM.

And the TGI [13]?
Its TGI is 44.1 µM.

And the GI50 [14]?
The GI50 was 28.3 µM.

What about the TGI [14] of the same compound?
The TGI was greater than 96.4 µM.

What about the GI50 [15] of the same compound?
Its GI50 is 26.4 µM.

What about the TGI [15] of the same compound?
The TGI was greater than 100 µM.

And the GI50 [16]?
The GI50 was 20.9 µM.

What about the TGI [16] of the same compound?
Its TGI is greater than 100 µM.

And the GI50 [17]?
Its GI50 is 83.9 µM.

And the TGI [17]?
The TGI was greater than 100 µM.

And the GI50 [18]?
Its GI50 is 7.16 µM.

What about the TGI [18] of the same compound?
Its TGI is 35.9 µM.

What about the GI50 [19] of the same compound?
Its GI50 is 16.4 µM.

What about the TGI [19] of the same compound?
Its TGI is 53.4 µM.

And the GI50 [20]?
Its GI50 is 18.2 µM.

What about the TGI [20] of the same compound?
Its TGI is 75.2 µM.

And the GI50 [21]?
The GI50 was 32 µM.

What about the TGI [21] of the same compound?
The TGI was greater than 100 µM.

What about the GI50 [22] of the same compound?
The GI50 was 35 µM.

What about the TGI [22] of the same compound?
Its TGI is greater than 100 µM.

And the GI50 [23]?
The GI50 was 33 µM.

And the TGI [23]?
The TGI was greater than 100 µM.

What about the GI50 [24] of the same compound?
The GI50 was 25 µM.

And the TGI [24]?
The TGI was greater than 100 µM.

And the GI50 [25]?
Its GI50 is 12.6 µM.

What about the TGI [25] of the same compound?
Its TGI is greater than 100 µM.

What about the GI50 [26] of the same compound?
The GI50 was 46.4 µM.

And the TGI [26]?
The TGI was greater than 100 µM.

What about the GI50 [27] of the same compound?
The GI50 was 69.1 µM.

And the TGI [27]?
The TGI was greater than 100 µM.

What about the GI50 [28] of the same compound?
The GI50 was 48.1 µM.

And the TGI [28]?
Its TGI is greater than 100 µM.

And the GI50 [29]?
Its GI50 is 42.2 µM.

What about the TGI [29] of the same compound?
The TGI was greater than 100 µM.

And the GI50 [30]?
Its GI50 is 17 µM.

And the TGI [30]?
The TGI was 55.3 µM.

And the GI50 [31]?
The GI50 was 32.8 µM.

What about the TGI [31] of the same compound?
Its TGI is greater than 100 µM.

And the GI50 [32]?
The GI50 was 77.2 µM.

What about the TGI [32] of the same compound?
Its TGI is greater than 100 µM.

And the GI50 [33]?
Its GI50 is 38 µM.

And the TGI [33]?
The TGI was greater than 100 µM.

And the GI50 [34]?
Its GI50 is 22 µM.

And the TGI [34]?
The TGI was greater than 100 µM.

What about the GI50 [35] of the same compound?
Its GI50 is 26.6 µM.

And the TGI [35]?
Its TGI is greater than 100 µM.

What about the GI50 [36] of the same compound?
The GI50 was 23.8 µM.

And the TGI [36]?
The TGI was greater than 100 µM.

And the GI50 [37]?
The GI50 was 45.4 µM.

What about the TGI [37] of the same compound?
The TGI was greater than 100 µM.

And the GI50 [38]?
The GI50 was 35.5 µM.

What about the TGI [38] of the same compound?
Its TGI is greater than 100 µM.

And the GI50 [39]?
The GI50 was 33.7 µM.

What about the TGI [39] of the same compound?
The TGI was greater than 100 µM.

What about the GI50 [40] of the same compound?
The GI50 was 29.6 µM.

What about the TGI [40] of the same compound?
The TGI was greater than 75.7 µM.

What about the GI50 [41] of the same compound?
Its GI50 is 33.5 µM.

And the TGI [41]?
Its TGI is greater than 100 µM.

And the GI50 [42]?
Its GI50 is 44.8 µM.

What about the TGI [42] of the same compound?
Its TGI is greater than 100 µM.

And the GI50 [43]?
Its GI50 is 33.4 µM.

And the TGI [43]?
The TGI was greater than 91.2 µM.

What about the GI50 [44] of the same compound?
The GI50 was 35.6 µM.

And the TGI [44]?
The TGI was greater than 100 µM.

What about the GI50 [45] of the same compound?
The GI50 was 31.1 µM.

And the TGI [45]?
Its TGI is greater than 100 µM.

And the GI50 [46]?
Its GI50 is 16.3 µM.

And the TGI [46]?
Its TGI is 77.5 µM.

And the GI50 [47]?
The GI50 was 18.7 µM.

What about the TGI [47] of the same compound?
Its TGI is greater than 81.2 µM.

And the GI50 [48]?
Its GI50 is 80 µM.

And the TGI [48]?
The TGI was greater than 100 µM.

And the GI50 [49]?
Its GI50 is 24.5 µM.

What about the TGI [49] of the same compound?
The TGI was greater than 86.9 µM.

What about the GI50 [50] of the same compound?
The GI50 was 26.2 µM.

What about the TGI [50] of the same compound?
Its TGI is greater than 100 µM.

And the GI50 [51]?
The GI50 was 22.2 µM.

And the TGI [51]?
The TGI was greater than 83.9 µM.

What about the GI50 [52] of the same compound?
The GI50 was 35 µM.

And the TGI [52]?
The TGI was greater than 100 µM.

And the GI50 [53]?
Its GI50 is 25.9 µM.

What about the TGI [53] of the same compound?
Its TGI is greater than 85.5 µM.

What about the GI50 [54] of the same compound?
Its GI50 is 38.7 µM.

What about the TGI [54] of the same compound?
Its TGI is greater than 100 µM.

What about the GI50 [55] of the same compound?
Its GI50 is 54.9 µM.

And the TGI [55]?
Its TGI is greater than 100 µM.

And the GI50 [56]?
Its GI50 is 30.8 µM.

What about the TGI [56] of the same compound?
The TGI was greater than 100 µM.

And the GI50 [57]?
The GI50 was 62 µM.

What about the TGI [57] of the same compound?
Its TGI is greater than 100 µM.

And the GI50 [58]?
Its GI50 is 20.1 µM.

And the TGI [58]?
The TGI was greater than 94.9 µM.
